Measurements taken from US8022076B2, “Substituted thieno[2,3-d]pyrimidines as potassium channel inhibitors” (Xention Limited, priority 2003, dated 2011).

Biological target: T1, human Kv1.5 (Homo sapiens, UniProt P22460)
T1 construct: expressed in transfected cells; stably transfected, blasticidin selection
Assay: Kv1.5 Rb+ efflux assay
Format: cell-based
Details: inhibition of 86Rb+ efflux through Kv1.5, cells stably transfected with human Kv1.5, 10 point concentration response curves n=2
Procedure: The pore of a potassium channel is permeable to other monovalent cations such as Rb^+ and Tl^+. Analysis of cellular efflux of potassium channel permeable ions enables potassium channel activity to be monitored directly. Cells stably transfected with cDNA for human Kv1.5 (in pEF6::VA-His-TOPO) were grown in Dulbecco's Modified Eagle media (DMEM) alpha supplemented with 10% Fetal Calf Serum (FCS), 20 μl/ml penicillin (5000 U/ml) streptomycin (5000 μg/ml), 10 μl/ml [100×] glutamine, and blasticidin (7.5 μg/ml). Cells were dispensed into 96 well cellstar TC plates and allowed to grow until a confluent monolayer was visible. On the morning of the assay run, cold media was aspirated using the TECAN plate washer, and a 50 μl media spike containing 2 μCi/ml (37 kBq/ml) ^86Rb^+ added to each well containing cells using the Shallow-Well Matrix Platemate. Plates were placed in a incubator at 37° C. for a minimum of 3 hours. Unloaded ^86Rb^+ in the “hot” media was aspirated and each well washed 4×250 μl with Earls Balanced Salt Solution (EBSS) which contained 5 mM KCl, 140 mM NaCl, 2 mM CaCl2, 1 mM MgSO4, 10 mM HEPES, and 5 mM glucose, pH 7.4, 290-300 mOsm. These cells were then pre-incubated with 50 μl of EBSS+/−test compounds for 10 minutes at room temperature. After the 10 minute incubation, 50 μl of modified EBSS which contained 145 mM KCl, 2 mM CaCl2, 1 mM MgSO4, 10 mM HEPES, 5 mM glucose, pH 7.4, 290-300 mOsm, was added, and the cells were incubated for a further 10 minutes at room temperature. The high KCl EBSS was used to depolarise cells to a membrane potential that would activate Kv1.5 channels. After the final incubation 80 μl/100 μl of the reaction from each well was transferred to equivalent wells in a Packard “Optiplate” white 96 well plate and counted in a Packard TopCount liquid scintillation counter by Cerenkov emission. Percentage inhibition ^86Rb^+ efflux through Kv1.5 was calculated by normalisation to 2.5 mM 4 amino-pyridine control block of Kv1.5. Alternatively cells were loaded with ^85Rb^+ and quantified by atomic absorption spectroscopy. IC50 determinations were derived from 10 point concentration response curves n=2 using the method described above. Data was fitted as variable slope sigmoidal fit using Graphpad Prism (V3.02) software.

T1 sequence (P22460 whole entry): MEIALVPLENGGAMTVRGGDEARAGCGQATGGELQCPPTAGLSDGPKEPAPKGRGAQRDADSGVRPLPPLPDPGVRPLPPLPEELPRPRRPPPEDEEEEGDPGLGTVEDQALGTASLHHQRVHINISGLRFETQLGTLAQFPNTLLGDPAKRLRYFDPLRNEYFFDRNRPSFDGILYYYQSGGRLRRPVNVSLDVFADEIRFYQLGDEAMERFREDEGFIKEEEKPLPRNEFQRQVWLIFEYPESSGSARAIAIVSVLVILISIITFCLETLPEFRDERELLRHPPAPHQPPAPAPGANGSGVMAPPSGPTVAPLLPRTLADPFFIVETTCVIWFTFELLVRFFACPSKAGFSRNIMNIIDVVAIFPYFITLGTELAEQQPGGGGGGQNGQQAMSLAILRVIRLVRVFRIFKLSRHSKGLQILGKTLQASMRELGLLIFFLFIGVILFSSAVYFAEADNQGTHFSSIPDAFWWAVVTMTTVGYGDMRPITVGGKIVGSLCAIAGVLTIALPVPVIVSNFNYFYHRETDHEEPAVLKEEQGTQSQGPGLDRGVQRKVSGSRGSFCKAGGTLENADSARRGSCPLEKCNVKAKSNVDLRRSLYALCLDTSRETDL

Compound | IC50 [µM]
Nc1nc(NCc2ccccn2)c2c(-c3ccccc3)csc2n1 [Example 192, 5-Phenyl-N-4-pyridin-2-ylmethyl-thieno[2,3-d]pyrimidine-2,4-diamine] | 2.18
COc1ccc(-c2csc3ncnc(NCc4ccccn4)c23)cc1 [Example 138, [5-(4-Methoxy-phenyl)-thieno[2,3-d]pyrimidin-4-yl]-pyridin-2-ylmethyl-amine] | 0.22
CN(C)c1nc(NCc2ccccn2)c2c(-c3ccccc3)csc2n1 [Example 198, N^2,N^2-Dimethyl-5-phenyl-N^4-pyridin-2-ylmethyl-thieno[2,3-d]pyrimidine-2,4-diamine] | 0.57
CC(Nc1ncnc2scc(-c3ccccc3)c12)c1ccccn1 (centres unmarked) [Example 149, (5-Phenyl-thieno[2,3-d]pyrimidin-4-yl)-(1-pyridin-2-yl-ethyl)-amine] | 0.37
COCCNc1nc(NCc2ccccn2)c2c(-c3ccccc3)csc2n1 [Example 189, N^2-(2-Methoxyethyl)-5-phenyl-N^4-(pyridin-2-ylmethyl)thieno[2,3-d]pyrimidine-2,4-diamine] | 0.28

Biological target: hKv1.5 (Homo sapiens, UniProt P22460)
Sequence (P22460 whole entry): as above
Assay: Kv1.5 Autopatch electrophysiology (whole cell patch-clamp)
Format: cell-based
Details: hKv1.5 current, compound at 1 μM
Procedure: The external bathing solution contained (in mM): 150 NaCl, 10 KCl, […], 3 MgCl2, 1 CaCl2, 10 HEPES, pH 7.4. Patch pipettes were filled with an electrode solution of composition (in mM): 160 KCl, 0.5 MgCl2, 10 HEPES, 1 EGTA, pH 7.4 with KOH.
Compounds were dissolved in DMSO (100%) and made up in the external bather at a concentration of 1 μM. All experiments were conducted at room temperature (22-24° C.).
A cell suspension (10 ml), with a density of 100,000 cells/ml, was aliquoted into a 15 ml centrifuge tube and transferred to an incubator (37° C., 5% CO2) for approximately one hour before use. Following 60 min incubation, a tube was taken and centrifuged at 1000 rpm for 4 mins at room temperature. 9.5 ml supernatant was thence discarded, leaving a cell pellet at the bottom of the tube. The pellet was then resuspended using 100 μl of cold (4° C.), filtered (0.22 μm), 0.2% BSA/bather solution (0.02 g BSA/10 ml bather). The bottom of the tube was manually agitated gently until the solution became cloudy with cells. The 100 μl cell resuspension solution was then stored on the bench at 4° C. (using a Peltier-based temperature control device) until used.
A length of capillary glass (1B150E-4, WPI) was dipped into the cell suspension solution, such that ˜3 cm column of fluid was taken up by capillary action. A Ag/AgCl wire was dropped into the non-dipped end of the capillary also. The outside of the solution-filled end of the capillary was then dried and the capillary was loaded into the AutoPatch™
Borosilicate glass patch pipettes (from 1.5 mm OD, thin-walled filamented, GC150-TF capillary glass, Harvard) were pulled using a DMZ pipette puller (Zeitz Instruments), and were back-filled using the internal pipette solution, being careful that no bubbles remain at the tip or in the body of the pipette. […]
Electrophysiology voltage-step protocols and analysis of data was performed as follows. […] Currents were analysed using Pulsefit software (v8.54, HEKA, Germany), with the total charge measured during the whole of the voltage step. […]

Compound | % Inhibition at 1 μM [%] | inhibition at 1 µM [%]
COCc1nc(NCc2ccccn2)c2c(-c3ccccc3)csc2n1 [Example 305, (2-Methoxymethyl-5-phenylthien[2,3-d]primidin-4-yl)pyridin-2-ylmethylamine] | 94.0 | –
c1ccc(-c2csc3ncnc(NCC4CCCCC4)c23)cc1 [Example 89, Cyclohexylmethyl-(5-phenyl-thieno[2,3-d]pyrimidin-4-yl)-amine] | – | 73.4
3-{5-Phenyl-4-[(pyridin-2-ylmethyl)-amino]-thieno[2,3-d]pyrimidin-2-ylamino)}-propane-1,2-diol [Example 214] | 87.0 | –

Tested on: not given
Assay: not given
Details: not given

Compound | melting point [°C]
c1ccc(-c2csc3nc(NCC4CC4)nc(NCc4ccccn4)c23)cc1 [Example 188, N^2-Cyclopropylmethyl-5-phenyl-N^4-pyridin-2-ylmethyl-thieno[2,3-d]pyrimidine-2,4-diamine] | 109 to 111
ClCc1nc(NCc2ccccn2)c2c(-c3ccccc3)csc2n1 [Example 301, (2-Chloromethyl-5-phenylthieno[2,3-d]pyrimidin-4-yl)pyridin-2-ylmethylamine] | 97 to 99
c1ccc(-c2csc3ncnc(NCc4ccco4)c23)cc1 [Example 83, Furan-2-ylmethyl-(5-phenyl-thieno[2,3-d]pyrimidin-4-yl)-amine] | 77 to 79
Cc1nc(NCc2ccccn2)c2c(-c3ccccc3)csc2n1 [Example 101, 2-Methyl-N-(2-pyridyl)methyl-5-phenylthieno[2,3-d]pyrimidin-4-ylamine] | 110 to 112
OCCc1nc(NCc2ccccn2)c2c(-c3ccccc3)csc2n1 [Example 250, 2-{5-Phenyl-4-[(pyridin-2-ylmethyl)amino]thieno[2,3-d]pyrimidin-2-yl}ethanol] | 90 to 92
Cn1ccc2cc(-c3csc4ncnc(NCc5ccccn5)c34)ccc21 [Example 312, [5-(1-Methyl-1H-indol-5-yl)thieno[2,3-d]pyrimidin-4-yl]pyridin-2-ylmethylamine] | 184 to 185
